Laboratory results published in patent publication US20150174145A1, “Pharmaceutical compounds with the structure of ionic salts with antibiotic and anticancer action” (priority 2013, published 2015).

How the values were obtained:
[1] = test system: K. pneumoniae; experiment: Minimum inhibitory concentration, ampicillin sensitive strains; type: cell-based, Klebsiella pneumonia; conditions: K. pneumoniae, Gram-negative, ampicillin sensitive
Method: (§1) Each one of the 24 combinations of the ionic liquids were tested with following 9 bacteria: • Escherichia coli ATCC25922 • Staphylococcus aureus ATCC25923 • Klebsiella pneumonia • Staphylococcus epidermidis • Enterococcus fecalis • E. coli Tem CTXM9 • E. coli CTXM2 • E. coli AmpCMox2 • Saccharomyces cerevisiae PYCC 4072
(§2) These bacteria were tested in Vitek2 systems from bioMérieux. Bacteria were grown on Trypticase soy agar for 24 hours at 37° C. prior to each test. The bacteria assays were made in Tryptic Soy Broth.

[2] = test system: K. pneumonia; experiment: Growing rates in presence and absence of compound; type: cell-based, Klebsiella pneumonia; conditions: conc. tested 0.5 mM
Method: as §2

[3] = test system: SF (skin fibroblasts); experiment: MTT cellular viability/proliferation, primary human cells; type: cell-based; conditions: Homo sapiens, Skin fibroblast, MTT assay
Method: (§3) At about 70-80% confluence, cells were enzymatically detached with 0.05% trypsin and 0.5 mM EDTA and seeded at 10^4 cells cm^−2.
(§4) After an attachment period of 24 hours, the culture medium was renewed, and supplemented with different concentrations (0.005-500 mM) of the ampicillin derived ionic liquid. Cell cultures were maintained in a 5% CO2 humidified atmosphere at 37° C.
(§5) Cellular viability/proliferation was assessed by the MTT assay at days 1, 3 and 5 of the culture. This assay is based on the reduction of 3-(4,5-dimethylthiazol-2-yl)-2,5-diphenyltetrazolium bromide (MTT) to a purple formazan product by viable cells.
(§6) Shortly, cultured cells were incubated at 37° C. with 0.5 mg ml −1 of MTT for 4 hours. The culture medium was then removed; the stained product dissolved with dimethylsulfoxide, and absorbance determined at 550 nm in an ELISA plate rewader. Results were expressed as absorbance per cm2.
(§7) The values of the […] (IC50) and the median lethal dose (LD50) were obtained from nonlinear regression analysis of concentration effect curves using the GGraphPad Prism Software.
(§8) It is used to measure the efficacy of a compound in inhibiting any biochemical or biological function.

[4] = test system: gingival fibroblasts (GF); experiment: as above; type: cell-based; conditions: Homo sapiens, Fibroblast, MTT assay
Method: as §3, §4, §5, §6, §7, §8

[5] = test system: E. fecalis; experiment: Minimum inhibitory concentration, ampicillin sensitive strains; type: cell-based, Enterococcus fecalis; conditions: Enterococcus; E. fecalis, Gram-positive, ampicillin sensitive; read-out: Minimum inhibitory concentrations
Method: as §1, §2

[6] = test system: E. fecalis; experiment: Growing rates in presence and absence of compound; type: cell-based, Enterococcus fecalis; conditions: conc. tested 0.005 mM
Method: as §2

[7] = test system: E. coli ATCC 25922; experiment: Minimum inhibitory concentration, ampicillin sensitive strains; type: cell-based, Escherichia coli; conditions: Escherichia coli, ATCC25922; E. coli ATCC 25922, Gram-negative, ampicillin sensitive; read-out: Minimum inhibitory concentrations
Method: as §1, §2

[8] = test system: S. epidermis; experiment: as above; type: cell-based, Staphylococcus epidermidis; conditions: Staphylococcus epidermidis; S. epidermis, Gram-positive, ampicillin sensitive; read-out: Minimum inhibitory concentrations
Method: as §1, §2

[9] = test system: S. aureus ATCC 25923; experiment: Growing rates in presence and absence of compound; type: cell-based, Staphylococcus aureus; conditions: S. aureus ATCC 25923, conc. tested 0.0005 mM
Method: as §2

[10] = test system: PC3 (prostate cancer cell line); experiment: MTT cellular viability/proliferation, cancer cell lines; type: cell-based, human; conditions: Homo sapiens; PC3, MTT assay
Method: as §3, §4, §5, §6, §7, §8

[11] = test system: MG63 (osteosarcoma cell line); experiment: as above; type: cell-based, human; conditions: Homo sapiens, MG-63; MG63, MTT assay
Method: as §3, §4, §5, §6, §7, §8

[12] = test system: RKO (colon cancer cell line); experiment: as above; type: cell-based, human; conditions: Homo sapiens, MTT assay
Method: as §3, §4, §5, §6, §7, §8

[13] = test system: HepG2 (hepatocellular liver carcinoma cell); experiment: as above; type: cell-based, human; conditions: Homo sapiens; HepG2, MTT assay
Method: as §3, §4, §5, §6, §7, §8

[14] = test system: E. coli AmpC MOX2; experiment: Growing rates in presence and absence of compound; type: cell-based; conditions: E. coli AmpC Mox2, conc. tested 0.05 mM
Method: as §2

[15] = test system: E. coli TEM CTX M9; experiment: Growing rates in presence and absence of compound; type: cell-based; conditions: E. coli TEM CTX M9, conc. tested 0.05 mM
Method: as §2

[16] = test system: E. coli CTX M2; experiment: Minimum inhibitory concentration, ampicillin resistant strains; type: cell-based; conditions: Escherichia coli, CTXM2; E. coli CTX M2, ampicillin resistant; read-out: Minimum inhibitory concentrations
Method: as §1, §2

[17] = test system: E. coli TEM CTX M9; experiment: as above; type: cell-based; conditions: Escherichia coli; E. coli TEM CTX M9, ampicillin resistant; read-out: Minimum inhibitory concentrations
Method: as §1, §2

[18] = test system: E. coli ATCC 25922; experiment: Growing rates in presence and absence of compound; type: cell-based, Escherichia coli; conditions: E. coli ATCC 25922, conc. tested 0.5 mM
Method: as §2

[19] = test system: S. epidermis; experiment: Growing rates in presence and absence of compound; type: cell-based, Staphylococcus epidermidis; conditions: conc. tested 0.005 mM
Method: as §2

[20] = test system: T47D (ductal breast epithelial tumour cell line); experiment: cells; type: cell-based; conditions: Homo sapiens; T47D, MTT assay
Method: as §3, §4, §5, §6, §7, §8

CC1(C)S[C@@H]2[C@H](NC(=O)[C@H](N)c3ccccc3)C(=O)N2[C@H]1C(=O)O [[P6,6,6,14][Amp]]
Minimum inhibitory concentrations [1]: 5000 µM
MIC ([1]; Klebsiella pneumoniae, read-out: Minimum inhibitory concentrations): 5000 µM
Growing rate with compound [2]: 0.00045 ± 0.00007 min⁻¹
Decreasing rate ([2]; with compound vs no compound): 0.18
IC50 [3]: 249 nM
IC50 [4]: 173 nM
MIC [5]: 50 µM
Growing rate with compound [6]: 0.0009 ± 0.0004 min⁻¹
Decreasing rate ([6]; with compound vs no compound): 0.28
MIC [7]: 2500 µM
MIC [8]: 50 µM
Growing rate with compound [9]: 0.0004 ± 0.0003 min⁻¹
Decreasing rate ([9]; with compound vs no compound): 0.077
IC50 [10]: 354 nM
IC50 [11]: 312 nM
IC50 [12]: 180 nM
IC50 [13]: 322 nM
Growing rate with compound [14]: 0.00077 ± 0.00006 min⁻¹
Decreasing rate ([14]; with compound vs no compound): 0.24
Growing rate with compound [15]: 0.00067 ± 0.00006 min⁻¹
Decreasing rate ([15]; with compound vs no compound): 0.20
MIC [16]: 500 µM
MIC [17]: 500 µM
Growing rate with compound [18]: 0.0007 ± 0.0001 min⁻¹
Decreasing rate ([18]; with compound vs no compound): 0.035
Growing rate with compound [19]: 0.0006 ± 0.0000 min⁻¹
Decreasing rate ([19]; with compound vs no compound): 0.13
IC50 [20]: 264 nM
